Test results published in paper PMC12775434, “Ultra-large virtual screening unveils potent agonists of the neuromodulatory orphan receptor GPR139” (Nature Communications, 2025).
Values joined by “and” are separate entries in the source; they are usually repeats but may differ in a detail not shown here. Equal entries are not always repeated.

Key:
Format in all cases: cell-based
GPR139 [1] = target: T1, GPR139 (Homo sapiens, UniProt Q6DWJ6); experiment: Ca2+ mobilization assay, antagonist mode (EC80 800 nM Lundbeck Cmp 1a after 20 min preincubation), GPR139-CHOk1
T1 sequence (Q6DWJ6 1-353): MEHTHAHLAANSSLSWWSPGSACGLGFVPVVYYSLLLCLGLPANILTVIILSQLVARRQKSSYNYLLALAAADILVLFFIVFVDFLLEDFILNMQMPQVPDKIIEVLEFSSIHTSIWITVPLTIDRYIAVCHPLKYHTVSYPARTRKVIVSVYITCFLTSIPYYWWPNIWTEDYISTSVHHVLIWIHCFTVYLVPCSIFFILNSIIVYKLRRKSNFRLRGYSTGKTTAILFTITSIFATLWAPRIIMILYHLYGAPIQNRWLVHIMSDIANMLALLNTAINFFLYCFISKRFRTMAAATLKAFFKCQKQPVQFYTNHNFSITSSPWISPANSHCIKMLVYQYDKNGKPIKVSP
Procedure, shortened: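 Antagonist mode: 800 nM (EC80) reference agonist Lundbeck Cmp 1a added following 20 min pre-incubation with 10 µM compound. GPR139-CHOk1 cells, Fluo-4 dye, probenecid-containing HEPES buffer pH 7.4; intracellular Ca2+ measured at 37 °C (ex 485, em 525 nm).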

[2] = target: T2, human muscarinic acetylcholine M1 receptor (M1R) (Homo sapiens, UniProt P11229); experiment: Ca2+ mobilization counter-screen in M1R-CHOk1 cells
T2 sequence (P11229 1-460): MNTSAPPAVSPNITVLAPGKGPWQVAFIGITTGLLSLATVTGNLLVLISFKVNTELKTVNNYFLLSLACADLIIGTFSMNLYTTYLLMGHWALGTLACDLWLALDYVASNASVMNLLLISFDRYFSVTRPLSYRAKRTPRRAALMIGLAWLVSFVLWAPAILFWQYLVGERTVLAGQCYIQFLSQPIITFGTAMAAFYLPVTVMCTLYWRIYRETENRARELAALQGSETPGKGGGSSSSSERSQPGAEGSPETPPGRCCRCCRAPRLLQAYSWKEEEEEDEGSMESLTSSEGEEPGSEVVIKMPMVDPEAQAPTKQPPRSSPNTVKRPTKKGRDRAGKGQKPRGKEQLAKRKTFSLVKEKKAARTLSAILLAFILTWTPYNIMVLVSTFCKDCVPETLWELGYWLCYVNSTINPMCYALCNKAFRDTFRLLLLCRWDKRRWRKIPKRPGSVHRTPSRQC
Procedure, shortened: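 Cells expressing M1R were grown 20–24 h, washed, then incubated 1 h at 37 °C with 2 µM Fluo-4 AM. After a wash and 10 min in probenecid buffer, test compounds were injected following a baseline read, and intracellular Ca2+ rise was monitored at 37 °C.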

GPR139 [3] = target: T1, GPR139; experiment: Ca2+ mobilization assay, agonist mode, stable GPR139-CHOk1 cell line; conditions: for EC50 / Emax: Supplementary Table 2, mean ± SEM; for EC50: read-out: pEC50 Ca2+ (converted); for Emax: normalized to Lundbeck Cmp 1a, read-out: Emax (%) Ca2+
Procedure, shortened: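 Agonist activity of compounds is assessed in stably transfected CHO-K1 cells using the calcium dye Fluo-4 at 37 °C in HEPES-buffered HBSS (pH 7.4). Efficacy is expressed relative to the reference agonist Lundbeck Cmp 1a, set as 100%.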

[4] = individual replicates (Supplementary Figure 4)
[5] = individual replicates (Supplementary Figure 5)
[6] = Agonist mode, individual replicates (Supplementary Figure 4)
[7] = log [Compound] M = -4.5, individual replicate columns
[8] = log [Compound] M = -5.0, individual replicate columns
[9] = log [Compound] M = -5.5, individual replicate columns
[10] = log [Compound] M = -6.0, individual replicate columns
[11] = log [Compound] M = -6.5, individual replicate columns
[12] = log [Compound] M = -7.0, individual replicate columns
[13] = log [Compound] M = -7.5, individual replicate columns
[14] = log [Compound] M = -8.0, individual replicate columns
[15] = log [Compound] M = -8.5, individual replicate columns
[16] = log [Compound] M = -9.0, individual replicate columns

Row | SMILES | Ca2+ signal (% of Cmp 1a) (GPR139 [1]; [4]) | Ca2+ signal (% of Carbachol) [2, 5] | Ca2+ signal (% of Cmp 1a) (GPR139 [3]; [6]) | EC50 (GPR139 [3]) [nM] | Emax (GPR139 [3]) [%] | Ca2+ signal (% of Cmp 1a) (GPR139 [3]; [7]) | Ca2+ signal (% of Cmp 1a) (GPR139 [3]; [8]) | Ca2+ signal (% of Cmp 1a) (GPR139 [3]; [9]) | Ca2+ signal (% of Cmp 1a) (GPR139 [3]; [10]) | Ca2+ signal (% of Cmp 1a) (GPR139 [3]; [11]) | Ca2+ signal (% of Cmp 1a) (GPR139 [3]; [12]) | Ca2+ signal (% of Cmp 1a) (GPR139 [3]; [13]) | Ca2+ signal (% of Cmp 1a) (GPR139 [3]; [14]) | Ca2+ signal (% of Cmp 1a) (GPR139 [3]; [15]) | Ca2+ signal (% of Cmp 1a) (GPR139 [3]; [16]) | other results
1 | Cc1c(-c2nc(CC(=O)NC(C)c3ccccc3)no2)sc2nccn12 (centres unmarked) [Compound 1.21, CC(C1=CC=CC=C1)NC(CC2=NOC(C3=C(C)N4C=CN=C4S3)=N2)=O] | 8 % of Cmp 1a and 24 % of Cmp 1a and 21 % of Cmp 1a | -6 % of Carbachol and -2 % of Carbachol and -1.22 % of Carbachol | 51 % of Cmp 1a and 103 % of Cmp 1a and 63 % of Cmp 1a | 1260 | 88 ± 6 | 99 % of Cmp 1a and 106 % of Cmp 1a and 96 % of Cmp 1a and 82 % of Cmp 1a and 98 % of Cmp 1a | 106 % of Cmp 1a and 89 % of Cmp 1a and 74 % of Cmp 1a and 87 % of Cmp 1a and 93 % of Cmp 1a | 113 % of Cmp 1a and 82 % of Cmp 1a and 55 % of Cmp 1a and 93 % of Cmp 1a and 79 % of Cmp 1a | 58 % of Cmp 1a and 46 % of Cmp 1a and 13 % of Cmp 1a and 61 % of Cmp 1a and 35 % of Cmp 1a | 30 % of Cmp 1a and 22 % of Cmp 1a and -9 % of Cmp 1a and 34 % of Cmp 1a and 9 % of Cmp 1a | 11 % of Cmp 1a and 3.59 % of Cmp 1a and -6 % of Cmp 1a and 13 % of Cmp 1a and 2 % of Cmp 1a | -0.321 % of Cmp 1a and 1.12 % of Cmp 1a and 16 % of Cmp 1a and 9 % of Cmp 1a and 1.36 % of Cmp 1a | -0.311 % of Cmp 1a and 5 % of Cmp 1a and 16 % of Cmp 1a and 8 % of Cmp 1a and 4 % of Cmp 1a | -0.779 % of Cmp 1a and 5.49 % of Cmp 1a and -3.74 % of Cmp 1a and 4.43 % of Cmp 1a and 2.79 % of Cmp 1a | 6.41 % of Cmp 1a and 9 % of Cmp 1a and -8 % of Cmp 1a and 7.41 % of Cmp 1a and -0.105 % of Cmp 1a | change in potency with larger substituents on the thiophene ring (GPR139 [3]; Ca2+ mobilization): three-fold reduction to a complete loss of activity
2 | Cc1cc(-c2nc(CC(=O)NC(C)c3ccccc3)no2)on1 (centres unmarked) [Compound 1.30, CC(C1=CC=CC=C1)NC(CC2=NOC(C3=CC(C)=NO3)=N2)=O] | 46 % of Cmp 1a and 28 % of Cmp 1a and 13 % of Cmp 1a | 4 % of Carbachol and -9 % of Carbachol and 13 % of Carbachol | 70 % of Cmp 1a and 59 % of Cmp 1a and 57 % of Cmp 1a | 2510 | 79 ± 3 | 86 % of Cmp 1a and 79 % of Cmp 1a and 75 % of Cmp 1a | 85 % of Cmp 1a and 68 % of Cmp 1a (2×) | 52 % of Cmp 1a and 50 % of Cmp 1a (2×) | -11 % of Cmp 1a and 14 % of Cmp 1a and 19 % of Cmp 1a | -12 % of Cmp 1a and 7 % of Cmp 1a (2×) | -10 % of Cmp 1a and 8 % of Cmp 1a and -3 % of Cmp 1a | -14 % of Cmp 1a and 7 % of Cmp 1a and -8 % of Cmp 1a | -5.33 % of Cmp 1a and 5.67 % of Cmp 1a and 1.67 % of Cmp 1a | -11 % of Cmp 1a and -3 % of Cmp 1a and 1.67 % of Cmp 1a | 10 % of Cmp 1a and 7 % of Cmp 1a and 3.67 % of Cmp 1a | 
3 | Cc1ccnc(-c2nc(CC(=O)NC(C)c3ccccc3)no2)c1 (centres unmarked) [Compound 1.17, CC(C1=CC=CC=C1)NC(CC2=NOC(C3=NC=CC(C)=C3)=N2)=O] | 4 % of Cmp 1a and 35 % of Cmp 1a and 2.33 % of Cmp 1a | -5.46 % of Carbachol and 6 % of Carbachol and 7.55 % of Carbachol | 56 % of Cmp 1a and 85 % of Cmp 1a and 81 % of Cmp 1a | 794 | 98 ± 3 | 97 % of Cmp 1a (2×) and 99 % of Cmp 1a and 98 % of Cmp 1a and 90 % of Cmp 1a | 111 % of Cmp 1a and 99 % of Cmp 1a and 92 % of Cmp 1a and 73 % of Cmp 1a and 91 % of Cmp 1a | 133 % of Cmp 1a and 107 % of Cmp 1a and 62 % of Cmp 1a and 54 % of Cmp 1a and 75 % of Cmp 1a | 82 % of Cmp 1a and 74 % of Cmp 1a and 57 % of Cmp 1a and 42 % of Cmp 1a and 56 % of Cmp 1a | 39 % of Cmp 1a and 41 % of Cmp 1a and 22 % of Cmp 1a and 13 % of Cmp 1a and 21 % of Cmp 1a | 27 % of Cmp 1a and 24 % of Cmp 1a and 4.3 % of Cmp 1a and 2.59 % of Cmp 1a and 7 % of Cmp 1a | 12 % of Cmp 1a (2×) and -2.74 % of Cmp 1a and 7 % of Cmp 1a and 4.7 % of Cmp 1a | 7 % of Cmp 1a and 3 % of Cmp 1a and -1 % of Cmp 1a and 10 % of Cmp 1a and 2.65 % of Cmp 1a | 7 % of Cmp 1a and 1.19 % of Cmp 1a and 6 % of Cmp 1a (2×) and 3 % of Cmp 1a | 11 % of Cmp 1a and 1.67 % of Cmp 1a and 3 % of Cmp 1a and 4.53 % of Cmp 1a and 4.33 % of Cmp 1a | fold decrease in potency relative to a similar phenyl substituted compound (1.3) (GPR139 [3]; Ca2+ mobilization EC50): 4- to 16 fold
4 | Cc1nonc1Cc1nc(CC(=O)NC(C)c2ccccc2)no1 (centres unmarked) [Compound 1.33, CC(C1=CC=CC=C1)NC(CC2=NOC(CC3=NON=C3C)=N2)=O] | 30 % of Cmp 1a and 49 % of Cmp 1a and 42 % of Cmp 1a | -5 % of Carbachol and 8 % of Carbachol and 10 % of Carbachol | 66 % of Cmp 1a and 46 % of Cmp 1a and 64 % of Cmp 1a | 3980 | 88 ± 2 | 85 % of Cmp 1a (2×) and 90 % of Cmp 1a and 83 % of Cmp 1a | 66 % of Cmp 1a and 64 % of Cmp 1a and 75 % of Cmp 1a and 85 % of Cmp 1a | 43 % of Cmp 1a and 39 % of Cmp 1a and 20 % of Cmp 1a and 51 % of Cmp 1a | 15 % of Cmp 1a and 21 % of Cmp 1a and 26 % of Cmp 1a and -5 % of Cmp 1a | 7 % of Cmp 1a and 26 % of Cmp 1a and 10 % of Cmp 1a and -17 % of Cmp 1a | -3.33 % of Cmp 1a and 29 % of Cmp 1a and 0 % of Cmp 1a and -12 % of Cmp 1a | 3 % of Cmp 1a and 6.33 % of Cmp 1a and 6 % of Cmp 1a and -13 % of Cmp 1a | 1 % of Cmp 1a and 1.67 % of Cmp 1a and 3 % of Cmp 1a and -15 % of Cmp 1a | 1.33 % of Cmp 1a (2×) and -3 % of Cmp 1a and -12 % of Cmp 1a | 4.33 % of Cmp 1a and 6.33 % of Cmp 1a and 12 % of Cmp 1a and -16 % of Cmp 1a | 
5 | CC(NC(=O)C1CCN(c2cccc(Cl)c2)C1=O)c1ccsc1 (centres unmarked) [Compound 12, CC(NC(=O)C1CCN(C1=O)C=2C=CC=C(Cl)C2)C=3C=CSC3] |  |  |  |  |  |  |  |  |  |  |  |  |  |  |  | Ca2+ signal (% of Cmp 1a) (GPR139 [1]; individual replicates (Supplementary Figure 1)): 56.3731 % of Cmp 1a and 71.421 % of Cmp 1a and 56.1991 % of Cmp 1a; Ca2+ signal (% of Carbachol) ([2]; individual replicates (Supplementary Figure 2)): -6.54 % of Carbachol and -0.0404 % of Carbachol; Ca2+ signal (% of Cmp 1a) (GPR139 [3]; 0.1 µM, individual replicates (Supplementary Figure 3)): -2.8 % of Cmp 1a and 0.3 % of Cmp 1a; Ca2+ signal (% of Cmp 1a) (GPR139 [3]; 1 µM, individual replicates (Supplementary Figure 3)): -0.458 % of Cmp 1a and 0.235 % of Cmp 1a; Ca2+ signal (% of Cmp 1a) (GPR139 [3]; 10 µM, individual replicates (Supplementary Figure 3)): 12.7 % of Cmp 1a and 12.3 % of Cmp 1a; Ca2+ signal (% of Cmp 1a) (GPR139 [3]; Agonist mode, individual replicates (Supplementary Figure 1)): 45 % of Cmp 1a and 20 % of Cmp 1a and 39 % of Cmp 1a
